# pIC50, pKi: −log10 of the molar value.
# Molecular target: T1, Tyrosine-protein phosphatase non-receptor type 1 [1-298] (Homo sapiens, UniProt P18031)
# T1 construct: 1-298
# T1 sequence (P18031 whole entry): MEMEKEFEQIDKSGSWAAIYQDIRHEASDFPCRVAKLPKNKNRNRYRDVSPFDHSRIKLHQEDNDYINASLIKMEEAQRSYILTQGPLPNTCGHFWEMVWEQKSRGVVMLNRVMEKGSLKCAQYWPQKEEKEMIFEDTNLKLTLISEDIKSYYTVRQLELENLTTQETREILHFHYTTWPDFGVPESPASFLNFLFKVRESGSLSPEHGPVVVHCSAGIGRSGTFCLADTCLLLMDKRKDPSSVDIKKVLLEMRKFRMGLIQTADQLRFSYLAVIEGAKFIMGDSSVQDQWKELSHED
# Assay: Phosphatase Inhibition Assay
# Conditions: for pIC50: pH 7, 22 °C
# Protocol: The activity of PTP1B enzyme was assayed with DiFMUP as substrate. Hydrolysis of substrate was monitored on a Victor V plate reader (Wallac). Kinetic measurements were measured using 3-5 concentrations of inhibitor around the IC50 over a range of substrate concentrations (3-500 uM). Data were used to determine Km/Ki/competitive inhibition using GraphPad Prism software.
pKi,SMILES,pIC50
< 3.30,Cn1nc(-c2ccccc2)cc1NS(=O)(=O)O [N-(1-methyl-3-phenyl-1H-pyrazol-5-yl)sulfamic acid],
,"CNC(=O)[C@@H]1Cc2ccc(NS(=O)(=O)O)cc2CN1C(=O)C=Cc1coc2ccccc12 [ammonium N-[(3S)-2-[(2E)-3-(1-benzofuran-3-yl)prop-2-enoyl]-3-(methylcarbamoyl)-1,2,3,4-tetrahydroisoquinolin-7-yl]sulfamate]",4.60
,"CNC(=O)[C@@H]1Cc2ccc(NS(=O)(=O)O)cc2CN1C(=O)N[C@@H](Cc1ccccc1)C(=O)OC(C)(C)C [ammonium N-[(3S)-2-{[(2S)-1-(tert-butoxy)-1-oxo-3-phenylpropan-2-yl]carbamoyl}-3-(methylcarbamoyl)-1,2,3,4-tetrahydroisoquinolin-7-yl]sulfamate]",< 3.30

# — BindingDB's records for doi:10.1016/j.bmcl.2005.12.051 (Procter & Gamble Pharmaceuticals, 2006)
